Measured values taken from patent publication US7011772B2, “UV absorbing mixture with textile fiber affinity” (BASF Aktiengesellschaft, priority 2000, dated 2006).

Assays:
[1] = Photostability of dyed cotton fabric after conditioning rinse (SUNTEST exposure, K/S values); conditions: 200 ppm based on the liquor; 14 hours SUNTEST exposure under outdoor conditions; K/S at maximum of K/S spectra; higher = higher photostability
Protocol: Woven cotton fabric dyed with Reactive Black 5 to ⅓ standard depth of shade was treated in the conditioning rinse cycle with a commercially available formulation (Lenor® care, 1000 ppm based on the liquor) in the presence of an inventive UV absorber mixture M1, M2, M3, M4, M5, M6 or M7 (each at 200 ppm based on the liquor) in a liquor ratio of 12.5:1. After the conditioning rinse cycle, the dyed fabric was removed and tested for photostability in the dried state.
The samples were exposed in a SUNTEST® tabletop accelerated lighting unit (from Heraeus, Hanau) for 14 hours under outdoor conditions. A spectrophotometer incl. an integration sphere (“Lambda 900” from Perkin Elmer) was used to measure the reflectance spectra of dyeings before and after exposure. These reflectance spectra were converted in line with the Kubelka-Munk theory into K/S spectra (K=absorption coefficient, S=scattering coefficient). The photostabilities are evaluated with reference to the K/S values after 14 hour exposure relative to the K/S values prior to exposure (K/S in each case at the maximum of the K/S spectra). The higher the value in % reported in Table 2, the higher the photostability.

[2] = UV protection factor UPF of cotton fabric after laundry aftertreatment in final rinse bath; conditions: in Lenor care conditioner 1000 ppm, dried white cotton fabric, AS/NZS 4399:1996
Protocol: The UV protection factor UPF of textiles is determined in accordance with the Australian/New Zealand standard AS/NZS 4399:1996 using an in vitro method. It measures the UV transmission of the textile object. The spectral transmission can be used to determine the protection factor directly using the following equation: [formula] where • Sλ=spectral irradiation of the sun in the UV region at the wavelength λ • Eλ=spectral erythema action of the UV radiation at the wavelength λ • Tλ=spectral transmission of the textile object at the wavelength λ.
White woven cotton fabric having a basis weight of 100 g/mm^2 [sic] and a UV protection factor UPF of 4.50 was washed using a water hardness of 3 mmol/l. The laundering process was a main wash cycle at 40° C. with a commercially available laundry detergent (Ariel® Color) and a subsequent conditioning rinse. The conditioner used was a commercially available formulation (Lenor® care) in a dosage of 1000 ppm, based on the liquor. […] After the conditioning rinse cycle, the fabric was removed and its UV protection factor UPF was determined in the dried state.

CCCCC(CC)COC(=O)C(C#N)=C(c1ccccc1)c1ccccc1 (stereo not shown) [Mixture A1, 2-ethylhexyl 2-cyano-3,3-diphenylacrylate]
K/S (14 h)/K/S (0 h) × 100% [1]: 67.7% | UPF with 50 ppm ([2]; 50 ppm UV absorber based on the liquor): 8.6 | UPF with 100 ppm ([2]; 100 ppm UV absorber based on the liquor): 13.5 | UPF with 200 ppm ([2]; 200 ppm UV absorber based on the liquor): 21.1
